Results from patent publication US12479847B2 (DANA-FARBER CANCER INSTITUTE, INC., priority 2019, dated 2025).
Where two headings read alike, the source gives them in different places.

What was measured:
Test in all cases: KINOMEscan (ScanMAX) kinase profiling
Format in all cases: binding
panel of 468 kinases [1] = molecular target: T1, panel of 468 kinases (Homo sapiens, UniProt P00519, T315I); conditions: 1 μM, read-out: % control
T1 construct: purchased KINOMEscan (ScanMAX) service

panel of 468 kinases [2] = molecular target: T2, panel of 468 kinases (Homo sapiens, UniProt P00533, L858R/T790M); conditions: EGFR(L858R,T790M); 1 μM; read-out: % control
T2 construct: purchased KINOMEscan (ScanMAX) service

panel of 468 kinases [3] = molecular target: T3, panel of 468 kinases (Homo sapiens, UniProt P21127); conditions: CDC2L1; 1 μM; read-out: % control
T3 construct: purchased KINOMEscan (ScanMAX) service

panel of 468 kinases [4] = molecular target: T4, panel of 468 kinases (Homo sapiens, UniProt P21860); conditions: ERBB3; 1 μM; read-out: % control
T4 construct: purchased KINOMEscan (ScanMAX) service

panel of 468 kinases [5] = molecular target: T5, panel of 468 kinases (Homo sapiens, UniProt P43403); conditions: ZAP70; 1 μM; read-out: % control
T5 construct: purchased KINOMEscan (ScanMAX) service
T5 sequence (P43403 1-619): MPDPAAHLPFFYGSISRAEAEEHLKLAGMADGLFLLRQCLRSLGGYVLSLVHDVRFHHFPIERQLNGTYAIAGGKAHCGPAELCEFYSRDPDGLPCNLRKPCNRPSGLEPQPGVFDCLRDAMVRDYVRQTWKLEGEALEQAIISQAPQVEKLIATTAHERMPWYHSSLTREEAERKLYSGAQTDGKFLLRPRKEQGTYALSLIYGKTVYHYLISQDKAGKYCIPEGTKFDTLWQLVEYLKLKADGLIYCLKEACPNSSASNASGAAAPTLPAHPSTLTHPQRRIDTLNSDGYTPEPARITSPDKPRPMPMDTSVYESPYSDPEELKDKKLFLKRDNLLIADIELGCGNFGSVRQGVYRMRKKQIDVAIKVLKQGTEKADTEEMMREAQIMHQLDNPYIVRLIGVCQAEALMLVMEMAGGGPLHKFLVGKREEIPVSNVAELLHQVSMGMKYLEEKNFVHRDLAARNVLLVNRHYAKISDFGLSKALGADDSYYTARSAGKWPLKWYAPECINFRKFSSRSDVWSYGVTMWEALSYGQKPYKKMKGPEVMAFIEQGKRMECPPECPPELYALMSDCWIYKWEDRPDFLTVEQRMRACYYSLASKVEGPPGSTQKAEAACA

panel of 468 kinases [6] = molecular target: T6, panel of 468 kinases (Homo sapiens, UniProt P49840); conditions: GSK3A; 1 μM; read-out: % control
T6 construct: purchased KINOMEscan (ScanMAX) service

panel of 468 kinases [7] = molecular target: T7, panel of 468 kinases (Homo sapiens, UniProt Q9H2G2); conditions: SLK; 1 μM; read-out: % control
T7 construct: purchased KINOMEscan (ScanMAX) service

panel of 468 kinases [8] = molecular target: T8, panel of 468 kinases (Homo sapiens, UniProt Q9H2K8); conditions: TAOK3; 1 μM; read-out: % control
T8 construct: purchased KINOMEscan (ScanMAX) service
T8 sequence (Q9H2K8 1-898): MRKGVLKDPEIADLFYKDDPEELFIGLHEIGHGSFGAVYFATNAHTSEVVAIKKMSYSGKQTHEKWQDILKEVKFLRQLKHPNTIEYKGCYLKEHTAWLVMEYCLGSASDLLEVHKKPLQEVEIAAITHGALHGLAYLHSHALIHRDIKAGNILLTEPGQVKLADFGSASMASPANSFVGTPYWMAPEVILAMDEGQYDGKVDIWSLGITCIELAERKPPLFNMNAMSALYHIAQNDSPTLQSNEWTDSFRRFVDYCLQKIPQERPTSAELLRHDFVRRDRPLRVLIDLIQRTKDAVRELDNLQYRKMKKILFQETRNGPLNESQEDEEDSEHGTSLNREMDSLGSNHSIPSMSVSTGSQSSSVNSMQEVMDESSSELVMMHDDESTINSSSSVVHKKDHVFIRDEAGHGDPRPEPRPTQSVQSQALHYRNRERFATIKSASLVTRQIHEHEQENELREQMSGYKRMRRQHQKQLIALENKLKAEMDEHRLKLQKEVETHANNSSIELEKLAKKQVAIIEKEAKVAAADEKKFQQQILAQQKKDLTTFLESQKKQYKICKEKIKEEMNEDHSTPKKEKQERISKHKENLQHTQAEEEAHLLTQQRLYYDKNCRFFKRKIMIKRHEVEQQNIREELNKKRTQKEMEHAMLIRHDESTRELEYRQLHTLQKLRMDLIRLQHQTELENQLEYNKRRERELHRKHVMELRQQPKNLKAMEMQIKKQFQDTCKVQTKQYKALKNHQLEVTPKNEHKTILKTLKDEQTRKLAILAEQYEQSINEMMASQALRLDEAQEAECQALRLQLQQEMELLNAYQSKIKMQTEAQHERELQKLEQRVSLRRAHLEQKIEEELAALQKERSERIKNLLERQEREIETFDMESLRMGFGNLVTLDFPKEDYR

panel of 468 kinases [9] = molecular target: T9, panel of 468 kinases (Homo sapiens, UniProt Q9HBY8); conditions: SGK2; 1 μM; read-out: % control
T9 construct: purchased KINOMEscan (ScanMAX) service
T9 sequence (Q9HBY8 1-367): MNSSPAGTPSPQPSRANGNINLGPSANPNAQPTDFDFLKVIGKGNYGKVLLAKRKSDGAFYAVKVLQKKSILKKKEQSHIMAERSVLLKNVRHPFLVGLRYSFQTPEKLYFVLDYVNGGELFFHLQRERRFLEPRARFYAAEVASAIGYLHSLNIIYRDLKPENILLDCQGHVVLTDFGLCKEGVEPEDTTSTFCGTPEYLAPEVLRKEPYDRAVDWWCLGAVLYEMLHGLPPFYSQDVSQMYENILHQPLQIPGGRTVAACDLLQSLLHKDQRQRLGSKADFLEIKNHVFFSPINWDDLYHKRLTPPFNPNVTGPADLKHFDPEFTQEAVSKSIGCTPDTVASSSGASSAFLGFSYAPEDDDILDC

panel of 468 kinases [10] = molecular target: T10, panel of 468 kinases (Homo sapiens, UniProt Q9HCP0); conditions: CSNK1G1; 1 μM; read-out: % control
T10 construct: purchased KINOMEscan (ScanMAX) service
T10 sequence (Q9HCP0 whole entry): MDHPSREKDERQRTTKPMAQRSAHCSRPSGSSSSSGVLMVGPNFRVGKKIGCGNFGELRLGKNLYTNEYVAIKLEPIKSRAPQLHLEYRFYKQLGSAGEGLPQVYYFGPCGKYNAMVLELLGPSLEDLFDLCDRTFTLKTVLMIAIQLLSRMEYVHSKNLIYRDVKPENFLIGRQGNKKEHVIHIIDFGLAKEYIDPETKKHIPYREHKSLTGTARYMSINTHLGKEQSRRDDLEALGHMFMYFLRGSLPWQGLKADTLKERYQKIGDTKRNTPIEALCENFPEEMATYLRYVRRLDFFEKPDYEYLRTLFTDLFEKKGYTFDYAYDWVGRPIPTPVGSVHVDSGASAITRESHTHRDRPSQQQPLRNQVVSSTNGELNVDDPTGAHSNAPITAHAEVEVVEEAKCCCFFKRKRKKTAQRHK

T7 sequence (Q9H2G2 whole entry): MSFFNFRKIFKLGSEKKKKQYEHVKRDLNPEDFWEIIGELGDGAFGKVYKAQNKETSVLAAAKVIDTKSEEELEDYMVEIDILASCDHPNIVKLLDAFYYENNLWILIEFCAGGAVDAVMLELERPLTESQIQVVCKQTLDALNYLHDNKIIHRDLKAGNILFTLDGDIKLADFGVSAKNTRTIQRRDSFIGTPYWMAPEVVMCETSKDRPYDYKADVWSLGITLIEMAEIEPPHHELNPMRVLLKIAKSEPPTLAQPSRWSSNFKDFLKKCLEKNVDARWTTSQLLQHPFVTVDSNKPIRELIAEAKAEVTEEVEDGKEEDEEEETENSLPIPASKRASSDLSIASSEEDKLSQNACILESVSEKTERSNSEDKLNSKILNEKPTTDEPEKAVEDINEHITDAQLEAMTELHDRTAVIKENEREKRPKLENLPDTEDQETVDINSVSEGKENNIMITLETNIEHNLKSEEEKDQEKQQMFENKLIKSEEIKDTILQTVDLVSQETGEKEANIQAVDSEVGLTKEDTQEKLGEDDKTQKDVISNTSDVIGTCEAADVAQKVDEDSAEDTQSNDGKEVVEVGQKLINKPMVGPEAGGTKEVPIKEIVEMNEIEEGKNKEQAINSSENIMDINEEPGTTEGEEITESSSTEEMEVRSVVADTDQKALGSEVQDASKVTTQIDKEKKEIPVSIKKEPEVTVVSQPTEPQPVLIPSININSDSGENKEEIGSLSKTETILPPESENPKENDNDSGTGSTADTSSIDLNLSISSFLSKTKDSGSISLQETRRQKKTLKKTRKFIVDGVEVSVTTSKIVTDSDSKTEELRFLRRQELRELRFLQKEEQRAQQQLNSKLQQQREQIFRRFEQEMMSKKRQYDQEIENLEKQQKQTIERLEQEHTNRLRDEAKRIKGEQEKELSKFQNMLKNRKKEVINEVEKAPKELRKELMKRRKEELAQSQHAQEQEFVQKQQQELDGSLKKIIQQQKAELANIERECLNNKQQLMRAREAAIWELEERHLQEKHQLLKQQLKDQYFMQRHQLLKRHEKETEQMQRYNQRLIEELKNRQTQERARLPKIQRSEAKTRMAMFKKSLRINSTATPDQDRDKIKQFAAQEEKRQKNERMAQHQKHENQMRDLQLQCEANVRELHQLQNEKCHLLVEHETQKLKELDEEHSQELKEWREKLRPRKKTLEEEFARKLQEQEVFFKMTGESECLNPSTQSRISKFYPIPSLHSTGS
T3 sequence (P21127 whole entry): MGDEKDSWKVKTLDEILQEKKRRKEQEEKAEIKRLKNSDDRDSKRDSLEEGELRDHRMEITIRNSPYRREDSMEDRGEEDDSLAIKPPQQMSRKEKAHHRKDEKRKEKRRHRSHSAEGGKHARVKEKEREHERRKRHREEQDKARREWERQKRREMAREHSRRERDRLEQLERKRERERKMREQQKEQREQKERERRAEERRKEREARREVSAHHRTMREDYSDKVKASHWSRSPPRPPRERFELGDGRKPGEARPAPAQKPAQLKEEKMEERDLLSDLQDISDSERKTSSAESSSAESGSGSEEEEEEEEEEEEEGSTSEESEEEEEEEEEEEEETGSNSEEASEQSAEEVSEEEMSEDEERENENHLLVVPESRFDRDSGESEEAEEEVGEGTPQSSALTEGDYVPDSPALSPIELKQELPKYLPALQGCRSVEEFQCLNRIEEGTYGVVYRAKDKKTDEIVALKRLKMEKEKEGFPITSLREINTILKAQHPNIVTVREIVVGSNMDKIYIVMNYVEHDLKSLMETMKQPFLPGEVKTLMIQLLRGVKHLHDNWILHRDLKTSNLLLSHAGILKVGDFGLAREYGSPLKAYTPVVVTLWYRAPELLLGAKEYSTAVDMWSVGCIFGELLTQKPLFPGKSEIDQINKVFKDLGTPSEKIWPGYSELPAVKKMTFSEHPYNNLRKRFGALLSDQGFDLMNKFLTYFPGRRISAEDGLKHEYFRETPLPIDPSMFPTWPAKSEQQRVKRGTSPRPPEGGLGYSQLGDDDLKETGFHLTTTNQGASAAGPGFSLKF
T2 sequence (P00533 25-1210 T790M/L858R): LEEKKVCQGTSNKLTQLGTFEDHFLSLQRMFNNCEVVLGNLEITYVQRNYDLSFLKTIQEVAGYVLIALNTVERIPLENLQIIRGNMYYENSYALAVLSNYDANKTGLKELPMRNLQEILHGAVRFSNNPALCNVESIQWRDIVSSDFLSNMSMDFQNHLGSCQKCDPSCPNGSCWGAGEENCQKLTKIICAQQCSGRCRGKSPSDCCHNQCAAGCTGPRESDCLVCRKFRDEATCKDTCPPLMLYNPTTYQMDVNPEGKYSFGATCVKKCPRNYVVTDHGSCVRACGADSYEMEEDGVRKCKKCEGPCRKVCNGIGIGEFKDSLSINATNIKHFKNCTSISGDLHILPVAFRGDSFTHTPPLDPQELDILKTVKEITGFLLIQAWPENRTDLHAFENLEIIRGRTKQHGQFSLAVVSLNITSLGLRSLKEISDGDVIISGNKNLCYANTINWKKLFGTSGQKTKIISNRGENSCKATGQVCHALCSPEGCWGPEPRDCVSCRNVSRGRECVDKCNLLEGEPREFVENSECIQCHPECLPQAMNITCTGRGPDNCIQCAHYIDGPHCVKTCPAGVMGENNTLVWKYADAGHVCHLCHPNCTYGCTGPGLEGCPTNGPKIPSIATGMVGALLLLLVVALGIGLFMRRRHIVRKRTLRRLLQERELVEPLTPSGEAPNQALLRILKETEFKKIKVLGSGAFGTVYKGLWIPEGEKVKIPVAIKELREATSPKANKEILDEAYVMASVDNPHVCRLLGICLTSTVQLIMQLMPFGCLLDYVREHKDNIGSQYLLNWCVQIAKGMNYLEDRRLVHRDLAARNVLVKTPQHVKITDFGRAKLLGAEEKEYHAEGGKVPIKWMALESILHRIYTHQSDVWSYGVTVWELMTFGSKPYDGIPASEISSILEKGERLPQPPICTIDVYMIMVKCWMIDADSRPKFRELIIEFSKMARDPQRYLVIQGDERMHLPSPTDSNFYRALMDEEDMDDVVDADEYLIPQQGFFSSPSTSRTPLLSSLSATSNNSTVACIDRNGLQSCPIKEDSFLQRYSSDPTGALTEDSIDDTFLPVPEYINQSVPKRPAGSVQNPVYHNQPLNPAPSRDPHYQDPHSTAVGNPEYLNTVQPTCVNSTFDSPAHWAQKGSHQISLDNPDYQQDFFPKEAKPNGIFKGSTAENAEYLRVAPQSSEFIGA
T4 sequence (P21860 20-1342): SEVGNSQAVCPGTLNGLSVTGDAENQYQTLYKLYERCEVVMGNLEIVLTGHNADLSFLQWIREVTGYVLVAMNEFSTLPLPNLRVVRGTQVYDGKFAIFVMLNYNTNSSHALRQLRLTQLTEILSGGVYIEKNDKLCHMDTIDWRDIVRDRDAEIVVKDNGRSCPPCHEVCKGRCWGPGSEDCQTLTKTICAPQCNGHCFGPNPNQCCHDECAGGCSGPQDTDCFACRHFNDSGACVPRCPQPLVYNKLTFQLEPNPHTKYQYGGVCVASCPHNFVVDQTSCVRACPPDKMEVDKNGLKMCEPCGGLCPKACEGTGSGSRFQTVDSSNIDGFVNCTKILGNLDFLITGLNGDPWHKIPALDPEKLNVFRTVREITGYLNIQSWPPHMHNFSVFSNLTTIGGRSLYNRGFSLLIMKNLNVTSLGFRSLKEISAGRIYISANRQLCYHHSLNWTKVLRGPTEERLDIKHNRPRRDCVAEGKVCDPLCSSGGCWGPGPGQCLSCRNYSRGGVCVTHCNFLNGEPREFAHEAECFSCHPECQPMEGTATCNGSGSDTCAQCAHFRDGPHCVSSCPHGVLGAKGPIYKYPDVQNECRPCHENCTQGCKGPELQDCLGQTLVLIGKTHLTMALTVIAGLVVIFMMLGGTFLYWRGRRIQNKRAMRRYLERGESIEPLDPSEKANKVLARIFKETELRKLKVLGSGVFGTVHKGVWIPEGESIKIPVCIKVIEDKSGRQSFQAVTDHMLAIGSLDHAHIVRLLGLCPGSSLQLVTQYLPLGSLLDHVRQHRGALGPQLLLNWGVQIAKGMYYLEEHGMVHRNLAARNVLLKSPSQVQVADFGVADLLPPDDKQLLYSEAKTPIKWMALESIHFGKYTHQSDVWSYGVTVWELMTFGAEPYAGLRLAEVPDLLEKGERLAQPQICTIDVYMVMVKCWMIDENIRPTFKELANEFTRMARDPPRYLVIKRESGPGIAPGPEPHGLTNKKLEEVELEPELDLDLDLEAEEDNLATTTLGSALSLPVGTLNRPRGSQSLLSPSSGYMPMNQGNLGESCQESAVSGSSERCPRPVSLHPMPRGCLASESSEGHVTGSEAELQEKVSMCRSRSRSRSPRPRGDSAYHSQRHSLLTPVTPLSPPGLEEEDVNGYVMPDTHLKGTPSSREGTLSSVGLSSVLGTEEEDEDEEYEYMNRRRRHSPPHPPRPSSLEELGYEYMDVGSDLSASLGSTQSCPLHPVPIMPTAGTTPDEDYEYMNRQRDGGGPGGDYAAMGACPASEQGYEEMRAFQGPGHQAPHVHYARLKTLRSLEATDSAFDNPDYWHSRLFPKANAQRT

Row | Compound | remaining binding at 1 µM (panel of 468 kinases [1]; ABL1(T315I)-nonphosphorylated) [%] | remaining binding at 1 µM (panel of 468 kinases [1]; ABL1(T315I)-phosphorylated) [%] | remaining binding at 1 µM (panel of 468 kinases [2]) [%] | remaining binding at 1 µM (panel of 468 kinases [3]) [%] | remaining binding at 1 µM (panel of 468 kinases [4]) [%] | remaining binding at 1 µM (panel of 468 kinases [5]) [%] | remaining binding at 1 µM (panel of 468 kinases [6]) [%] | remaining binding at 1 µM (panel of 468 kinases [7]) [%] | remaining binding at 1 µM (panel of 468 kinases [8]) [%] | remaining binding at 1 µM (panel of 468 kinases [9]) [%] | remaining binding at 1 µM (panel of 468 kinases [10]) [%]
1 | CNc1nc(Nc2ccc(C(=O)N3CCC(N4CCOCC4)CC3)c3c2OCO3)nc2[nH]cc(Cl)c12 [Compound 75, (7-((5-chloro-4-(methylamino)-7H-pyrrolo[2,3-d]pyrimidin-2-yl)amino)benzo[d][1,3]dioxol-4-yl)(4-morpholinopiperidin-1-yl)methanone] | 100 | 60 | 45 | 100 | 38 | 22 | 87 | 100 | 83 | 37 | 28
2 | CNc1nc(Nc2ccc(S(=O)(=O)N3CCC(N4CCOCC4)CC3)cc2OC)nc2[nH]cc(Cl)c12 [Compound 12, 5-chloro-N2-(2-methoxy-4-((4-morpholinopiperidin-1-yl)sulfonyl)phenyl)-N4-methyl-7H-pyrrolo[2,3-d]pyrimidine-2,4-diamine] | 94 | 100 | 66 | 100 | 38 | 65 | 91 | 100 | 85 | 95 | 100
3 | CNc1nc(Nc2ccc(P3(=O)CCN(C4CCOCC4)CC3)cc2OC)nc2[nH]cc(Cl)c12 [Compound 77, 4-(4-((5-chloro-4-(methylamino)-7H-pyrrolo[2,3-d]pyrimidin-2-yl)amino)-3-methoxyphenyl)-1-(tetrahydro-2H-pyran-4-yl)-1,4-azaphosphinane 4-oxide] | 99 | 77 | 42 | 100 | 35 | 37 | 90 | 100 | 84 | 87 | 100
